In US7932262B2 (Novartis AG, priority 2006, dated 2011):
pEC50, pIC50: −log10 of the molar value. Like-named read-outs stand apart in the source and are kept apart here. One block for each compound: values may come before it.

Legend:
PDK1 kinase = biological target: T1, PDK1 kinase (Homo sapiens, UniProt O15530); test: PDK1 Kinase Alpha Screen Assay; type: biochemical
T1 sequence (O15530 1-556): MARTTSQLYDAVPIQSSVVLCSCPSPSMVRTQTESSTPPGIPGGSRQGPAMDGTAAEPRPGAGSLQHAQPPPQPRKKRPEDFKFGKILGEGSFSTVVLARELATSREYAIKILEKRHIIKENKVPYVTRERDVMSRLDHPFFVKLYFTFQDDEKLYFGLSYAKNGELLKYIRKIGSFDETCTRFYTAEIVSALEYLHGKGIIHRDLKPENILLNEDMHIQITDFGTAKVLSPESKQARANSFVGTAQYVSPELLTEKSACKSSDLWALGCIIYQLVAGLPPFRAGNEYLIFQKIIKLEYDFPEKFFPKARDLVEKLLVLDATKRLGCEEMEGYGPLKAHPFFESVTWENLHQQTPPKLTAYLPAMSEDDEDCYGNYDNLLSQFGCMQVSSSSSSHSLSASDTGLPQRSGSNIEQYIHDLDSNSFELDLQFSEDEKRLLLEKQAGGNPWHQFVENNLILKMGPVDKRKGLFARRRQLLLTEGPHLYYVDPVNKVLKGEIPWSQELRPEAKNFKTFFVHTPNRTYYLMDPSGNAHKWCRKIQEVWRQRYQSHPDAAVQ
Procedure, shortened: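 PDK1 phosphorylated 50 nM biotinylated PDK1-4 peptide with 10 uM ATP in Tris pH 7.5, 10 mM MgCl2, 2 mM DTT, 2.5% DMSO for 3-18 hours. After EDTA stop, phosphopeptide was detected by AlphaScreen using phospho-(Ser/Thr) PKA substrate antibody with protein A/streptavidin beads, read after overnight incubation.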

A2780 cells = test: Cell Proliferation Assay (Cell Titer Glo), A2780; type: cell-based; settings: Homo sapiens, read-out: CPEC50 A2780
Protocol: IV. Cell Proliferation Assay Protocol:
A2780, PC-3, or PC3MM cells were seeded at 1000 cells/well in 100 μL/well (10.000 cells/mL) growth media in 96-well plates. Cells were allowed to adhere to the bottom of plates for 3-5 hours in a 37° C. 5% CO2 incubator. Compounds were dissolved in DMSO and then transferred to the cell plates. The cells were incubated with the compounds for 3 days in a 37° C. 5% CO2 incubator. The growth medium containing the compounds was then removed from the cells and fresh medium was added, followed by 100 μL of Cell Titer Glo assay reagent (Promega). This mixture was shaken for 1 minute and then incubated without shaking for 10 minutes. Activity determinations for the compounds were made by detection on a Trilux Instrument.

PC-3 cells = test: Cell Proliferation Assay (Cell Titer Glo), PC-3 cell line; type: cell-based; settings: Homo sapiens, PC-3, PC3 cells; read-out: CPEC50 PC3
Procedure, shortened: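 PC-3 cells, 1000 cells/well, left to adhere 3-5 h, then exposed for 3 days at 37° C to compounds as 1:3 serial dilutions from 500× DMSO stocks diluted in growth medium. Medium then replaced with fresh medium and viability read by Cell Titer Glo luminescence.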

[1] = 72 h, A2780 cells, 3 days incubation
[2] = Cell Proliferation Assay, A2780
[3] = cell proliferation, A2780 cells
[4] = head of the second part of Table 4: BV11261, read-out: PDK1 BV11261

- pIC50 (PDK1 kinase; read-out: PDK1 IC50): > 5.30
- pEC50 (A2780 cells; [1]): > 5.30
SMILES: CC(C)N1CCC(Oc2cccc3cnc(Nc4cccc(S(=O)(=O)N5CCOCC5)c4)nc23)CC1 [Compound 6, [8-(1-Isopropyl-piper-idin-4-yloxy)-quina-zolin-2-yl]-[3-(morpholine-4-sul-fonyl)-phenyl]-amine]

- pIC50 (PDK1 kinase; read-out: PDK1 IC50): > 5.30
- pEC50 (A2780 cells; [1]): > 5.30
SMILES: CN1CCN(S(=O)(=O)c2cccc(Nc3ncc4cccc(OC5CCNCC5)c4n3)c2)CC1 [Compound 7, [3-(4-Methyl-piper-azine-1-sulfonyl)-phenyl]-[8-(piperidin-4-yloxy)-quinazolin-2-yl]-amine]

- pIC50 (PDK1 kinase; read-out: PDK1 IC50): > 5.30
- pEC50 (A2780 cells; [1]): > 5.30
SMILES: CC(C)NS(=O)(=O)c1cccc(Nc2ncc3cccc(OC4CCNCC4)c3n2)c1 [Compound 8, N-Isopropyl-3-[8-(piperidin-4-yloxy)-quinazolin-2-yl-amino]-benzenesulfonamide]

- pIC50 (PDK1 kinase; read-out: PDK1 IC50): > 5.30
- pEC50 (A2780 cells; [1]): > 5.30
SMILES: COCCNS(=O)(=O)c1cccc(Nc2ncc3cccc(OC4CCNCC4)c3n2)c1 [Compound 9, N-(2-Methoxy-ethyl)-3-[8-(piperidin-4-yloxy)-quinazolin-2-ylamino]-benzenesulfonamide]

- pIC50 (PDK1 kinase; read-out: PDK1 IC50): > 5.30
- pEC50 (A2780 cells; [1]): > 5.30
SMILES: CN1CCN(S(=O)(=O)c2ccc(Nc3ncc4cccc(OC5CCNCC5)c4n3)cc2)CC1 [Compound 10, [4-(4-Methyl-piper-azine-1-sulfonyl)-phenyl]-[8-(piper-idin-4-yloxy)-quinazolin-2-yl]-amine]

- pEC50 (A2780 cells; [2]): 5.00 to 5.30
SMILES: COc1ncccc1-c1ccc2cnc(Nc3ccc(S(N)(=O)=O)cc3)nc2c1 [Compound 314, 4-(7-(2-methoxypyridin-3-yl)quinazolin-2-ylamino)benzenesulfonamide]

- pEC50 (A2780 cells; [2]): > 5.30
SMILES: Cn1cc(-c2ccc3cnc(Nc4ccc(S(=O)(=O)N5CCOCC5)cc4)nc3c2)cn1 [Compound 317, 7-(1-methyl-1H-pyrazol-4-yl)-N-(4-(morpholinosulfonyl)phenyl)quinazolin-2-amine]

- pEC50 (A2780 cells; [2]): 5.00 to 5.30
SMILES: NS(=O)(=O)c1ccc(Nc2ncc3cccc(C(=O)NCc4ccccn4)c3n2)cc1 [Compound 419, N-(pyridin-2-ylmethyl)-2-(4-sulfamoylphenylamino)quinazoline-8-carboxamide]

- pEC50 (A2780 cells; [2]): > 5.30
SMILES: CC(C)(C)OC(=O)N1CCC(Oc2c(Br)ccc3cnc(Nc4ccc(S(N)(=O)=O)cc4)nc23)CC1 [Compound 420, tert-butyl 4-(7-bromo-2-(4-sulfamoylphenylamino)quinazolin-8-yloxy)piperidine-1-carboxylate]

- pEC50 (A2780 cells; [2]): 5.00 to 5.30
SMILES: CC(C)Oc1cccc2cnc(Nc3cccnc3)nc12 [Compound 522, 8-isopropoxy-N-(pyridin-3-yl)quinazolin-2-amine]

- pEC50 (A2780 cells; [2]): 5.00 to 5.30
SMILES: CC(C)Oc1cccc2cnc(NC3CCN(C)CC3)nc12 [Compound 557, 8-isopropoxy-N-(1-methylpiperidin-4-yl)quinazolin-2-amine]

- pEC50 (A2780 cells; [2]): 5.00 to 5.30
SMILES: CC(C)Oc1cccc2cnc(NCc3ccc(S(N)(=O)=O)cc3)nc12 [Compound 558, 4-((8-isopropoxyquinazolin-2-ylamino)methyl)benzenesulfonamide]

- pEC50 (A2780 cells; [2]): 5.00 to 5.30
SMILES: COc1cc(-c2ccc3cnc(Nc4ccc(S(N)(=O)=O)cc4)nc3c2)ccn1 [Compound 560, 4-(7-(2-methoxypyridin-4-yl)quinazolin-2-ylamino)benzenesulfonamide]

- pEC50 (A2780 cells; [2]): 5.00 to 5.30
SMILES: CNC(=O)c1cc(Oc2ccc3cnc(Nc4ccc(S(N)(=O)=O)cc4)nc3c2)ccn1 [Compound 563, N-methyl-4-(2-(4-sulfamoylphenylamino)quinazolin-7-yloxy)picolinamide]

- pEC50 (A2780 cells; [2]): > 5.30
SMILES: CNC(=O)c1cccc2cnc(Nc3ccc(S(N)(=O)=O)cc3)nc12 [Compound 623, N-methyl-2-(4-sulfamoylphenylamino)quinazoline-8-carboxamide]

- pEC50 (A2780 cells; [2]): > 5.30
SMILES: NS(=O)(=O)c1ccc(Nc2ncc3cccc(C(=O)NC4CCOCC4)c3n2)cc1 [Compound 625, 2-(4-sulfamoylphenylamino)-N-(tetrahydro-2H-pyran-4-yl)quinazoline-8-carboxamide]

- pEC50 (A2780 cells; [2]): 5.00 to 5.30
SMILES: CC(=O)NCCNC(=O)c1cccc2cnc(Nc3ccc(S(N)(=O)=O)cc3)nc12 [Compound 626, N-(2-acetamidoethyl)-2-(4-sulfamoylphenylamino)quinazoline-8-carboxamide]

- pEC50 (A2780 cells; [2]): 5.00 to 5.30
SMILES: CS(=O)(=O)CCNC(=O)c1cccc2cnc(Nc3ccc(S(N)(=O)=O)cc3)nc12 [Compound 627, N-(2-(methylsulfonyl)ethyl)-2-(4-sulfamoylphenylamino)quinazoline-8-carboxamide]

- pEC50 (A2780 cells; [2]): 5.00 to 5.30
SMILES: NS(=O)(=O)c1ccc(Nc2ncc3cc(F)cc(-c4ccc(F)nc4)c3n2)cc1 [Compound 633, 4-(6-fluoro-8-(6-fluoropyridin-3-yl)quinazolin-2-ylamino)benzenesulfonamide]

- pEC50 (A2780 cells; [2]): 5.00 to 5.30
SMILES: COc1cc(-c2ccc3cnc(Nc4ccc(S(N)(=O)=O)cc4)nc3c2)c(Cl)cn1 [Compound 696, 4-(7-(5-chloro-2-methoxypyridin-4-yl)quinazolin-2-ylamino)benzenesulfonamide]

- pEC50 (A2780 cells; [3]): > 5.30
SMILES: COc1cccc(COc2cccc3cnc(Nc4ccc(S(N)(=O)=O)cc4)nc23)c1 [Compound 719, 4-(8-(3-methoxybenzyloxy)quinazolin-2-ylamino)benzenesulfonamide]

- pEC50 (A2780 cells; [3]): 5.00 to 5.30
SMILES: NS(=O)(=O)c1ccc(Nc2ncc3cccc(OCc4ccc5nonc5c4)c3n2)cc1 [Compound 720, 4-(8-(benzo[c][1,2,5]oxadiazol-5-ylmethoxy)quinazolin-2-ylamino)benzenesulfonamide]

- pEC50 (A2780 cells; [3]): 5.00 to 5.30
SMILES: c1cc(OC2CCCC2)c2nc(NC3CC3)ncc2c1 [Compound 728, 8-(cyclopentyloxy)-N-cyclopropylquinazolin-2-amine]

- pEC50 (A2780 cells; [3]): 5.00 to 5.30
SMILES: Fc1ccc(F)c(CNc2ncc3cccc(OC4CCCC4)c3n2)c1 [Compound 729, 8-(cyclopentyloxy)-N-(2,5-difluorobenzyl)quinazolin-2-amine]

- pEC50 (A2780 cells; [3]): > 5.30
SMILES: Oc1cccc2cnc(NCc3cc(F)ccc3F)nc12 [Compound 730, 2-(2,5-difluorobenzylamino)quinazolin-8-ol]

- pEC50 (A2780 cells; [3]): 5.00 to 5.30
SMILES: NS(=O)(=O)c1ccc(Nc2ncc3ccc(-c4ccc5c(c4)OCO5)cc3n2)cc1 [Compound 791, 4-(7-(benzo[d][1,3]dioxol-5-yl)quinazolin-2-ylamino)benzenesulfonamide]

- pIC50 (PDK1 kinase; [4]): > 5.30
- pEC50 (PC-3 cells): > 5.30
SMILES: COc1c(-c2cnn(C)c2)cc(Cl)c2cnc(Nc3cccc(N4CCOCC4)c3)nc12 [Compound 1036, 5-chloro-8-methoxy-7-(1-methyl-1H-pyrazol-4-yl)-N-(3-morpholinophenyl)quinazolin-2-amine]

- pIC50 (PDK1 kinase; [4]): > 5.30
- pEC50 (PC-3 cells): > 5.30
SMILES: COc1c(-c2cnn(C)c2)cc(Cl)c2cnc(Nc3cc(CN(C)C)cc(NC(C)=O)c3)nc12 [Compound 1037, N-(3-(5-chloro-8-methoxy-7-(1-methyl-1H-pyrazol-4-yl)quinazolin-2-ylamino)-5-((dimethylamino)methyl)phenyl)acetamide]

- pIC50 (PDK1 kinase; [4]): > 5.30
- pEC50 (PC-3 cells): > 5.30
SMILES: COc1c(-c2cnn(C)c2)cc(Cl)c2cnc(Nc3ccc(C(=O)NC4CC4)cc3)nc12 [Compound 1038, 4-(5-chloro-8-methoxy-7-(1-methyl-1H-pyrazol-4-yl)quinazolin-2-ylamino)-N-cyclopropylbenzamide]

- pIC50 (PDK1 kinase; [4]): > 5.30
- pEC50 (PC-3 cells): > 5.30
SMILES: C#Cc1cc2cnc(Nc3ccc(C(=O)NC(C)C)cc3)nc2cc1-c1ccc2c(c1)CCNC2=O [Compound 1039, 4-(6-ethynyl-7-(1-oxo-1,2,3,4-tetrahydroisoquinolin-6-yl)quinazolin-2-ylamino)-N-isopropylbenzamide]

- pIC50 (PDK1 kinase; [4]): > 5.30
- pEC50 (PC-3 cells): 5.00 to 5.30
SMILES: CC(C)NC(=O)c1ccc(Nc2ncc3ccc(-c4ccc5c(c4)CCNC5=O)cc3n2)cc1 [Compound 1040, N-isopropyl-4-(7-(1-oxo-1,2,3,4-tetrahydroisoquinolin-6-yl)quinazolin-2-ylamino)benzamide]

- pIC50 (PDK1 kinase; [4]): > 5.30
- pEC50 (PC-3 cells): 5.00 to 5.30
SMILES: C#Cc1cc2cnc(Nc3ccc(C(=O)N4CCOCC4)cc3)nc2cc1-c1ccc2c(c1)CCNC2=O [Compound 1041, 6-(6-ethynyl-2-(4-(morpholine-4-carbonyl)phenylamino)quinazolin-7-yl)-3,4-dihydroisoquinolin-1(2H)-one]
